The results in this text go back to ChEMBL document CHEMBL3286285, “A novel 2-oxoindolinylidene inhibitor of bacterial MurD ligase: Enzyme kinetics, protein-inhibitor binding by NMR and a molecular dynamics study” (Eur J Med Chem, 2014).

The target in assay [1] is T1, UDP-N-acetylmuramoylalanine--D-glutamate ligase (Escherichia coli K-12, UniProt P14900).
T1 sequence (P14900 whole entry): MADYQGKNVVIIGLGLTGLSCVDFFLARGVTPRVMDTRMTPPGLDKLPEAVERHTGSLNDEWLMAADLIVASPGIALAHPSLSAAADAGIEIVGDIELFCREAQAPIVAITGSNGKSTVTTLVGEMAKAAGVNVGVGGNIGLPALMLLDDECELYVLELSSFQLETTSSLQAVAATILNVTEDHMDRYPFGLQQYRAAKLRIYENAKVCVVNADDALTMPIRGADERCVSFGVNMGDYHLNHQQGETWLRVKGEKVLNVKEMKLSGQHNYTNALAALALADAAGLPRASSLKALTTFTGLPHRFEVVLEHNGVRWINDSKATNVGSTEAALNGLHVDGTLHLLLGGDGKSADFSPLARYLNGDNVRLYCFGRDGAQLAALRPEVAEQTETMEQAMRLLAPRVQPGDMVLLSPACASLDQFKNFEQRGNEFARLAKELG
The assay can be described thus: Binding affinity to 6x His-tagged and 15N/13C-labeled Escherichia coli MurD ligase measured at NMR signal 4 by 1H/13C-HSQC 2D NMR spectroscopy.

Assay [2] deals with T1, UDP-N-acetylmuramoylalanine--D-glutamate ligase. The assay can be described thus: Binding affinity to 6x His-tagged and 15N/13C-labeled Escherichia coli MurD ligase measured at NMR signal 123 by 1H/13C-HSQC 2D NMR spectroscopy.
Assay [3] shares this target. The assay can be described thus: Competitive inhibition of Escherichia coli MurD ligase activity using UDP-N-acetylmuramyl-L-alanine as a substrate.
Assay [4] shares this target. The assay can be described thus: Binding affinity to 6x His-tagged and 15N/13C-labeled Escherichia coli MurD ligase measured at NMR signal 71 by 1H/13C-HSQC 2D NMR spectroscopy.
For the next assay, the system named is Streptococcus pneumoniae. The assay can be described thus: Antibacterial activity against Streptococcus pneumoniae ATCC 49619 by broth microdilution method. Type of assay: functional.
Another assay relates to Streptococcus pyogenes. The assay can be described thus: Antibacterial activity against Streptococcus pyogenes ATCC 19615 by broth microdilution method. Type of assay: functional.
Assay [5] addresses T1, UDP-N-acetylmuramoylalanine--D-glutamate ligase. The assay can be described thus: Binding affinity to 6x His-tagged and 15N/13C-labeled Escherichia coli MurD ligase by 1H/13C-HSQC 2D NMR spectroscopy.
A further assay concerns Staphylococcus aureus. The assay can be described thus: Antibacterial activity against Staphylococcus aureus ATCC 25923 by broth microdilution method. Type of assay: functional.
Assay [6] deals with T2, UDP-N-acetylmuramoylalanine--D-glutamate ligase (Escherichia coli K-12) (UniProt P14900).
T2 sequence (whole entry): T1 sequence (P14900 whole entry)
The assay can be described thus: Binding affinity to Escherichia coli MurD ligase by transferred NOESY NMR spectroscopy.

The target in assay [7] is T2, UDP-N-acetylmuramoylalanine--D-glutamate ligase (Escherichia coli K-12). The assay can be described thus: Binding affinity to Escherichia coli MurD ligase by saturation transfer difference NMR spectroscopy.
Assay [8] deals with Haemophilus influenzae. The assay can be described thus: Antibacterial activity against Haemophilus influenzae ATCC 49247 by broth microdilution method. Type of assay: functional.
For assay [9], the system named is Haemophilus influenzae. The assay can be described thus: Antibacterial activity against Haemophilus influenzae Lek 93 by broth microdilution method. Format: functional.
The next assay has as its system Enterococcus faecalis. The assay can be described thus: Antibacterial activity against Enterococcus faecalis ATCC 29212 by broth microdilution method. Type of assay: functional.
Assay [10] addresses T1, UDP-N-acetylmuramoylalanine--D-glutamate ligase. The assay can be described thus: Binding affinity to 6x His-tagged and 15N/13C-labeled Escherichia coli MurD ligase measured at NMR signal 43 by 1H/13C-HSQC 2D NMR spectroscopy.
In assay [11] the test system is Escherichia coli. The assay can be described thus: Antibacterial activity against Escherichia coli ATCC 35218 by broth microdilution method. Type of assay: functional.
Assay [12] has as its system Escherichia coli. The assay can be described thus: Antibacterial activity against Escherichia coli ATCC 25922 by broth microdilution method. Format: functional.
Assay [13] addresses T1, UDP-N-acetylmuramoylalanine--D-glutamate ligase. The assay can be described thus: Binding affinity to 6x His-tagged and 15N/13C-labeled Escherichia coli MurD ligase measured at NMR signal 56 by 1H/13C-HSQC 2D NMR spectroscopy.
The target is the same in assay [14]. The assay can be described thus: Binding affinity to 6x His-tagged and 15N/13C-labeled Escherichia coli MurD ligase measured at NMR signal 9 by 1H/13C-HSQC 2D NMR spectroscopy.
The target is the same in assay [15]. The assay can be described thus: Binding affinity to 6x His-tagged and 15N/13C-labeled Escherichia coli MurD ligase measured at NMR signal 13 by 1H/13C-HSQC 2D NMR spectroscopy.

Converted amounts (≈) assume the structure as drawn. The source made the active and inactive calls. The rule behind the calls is not given here. A value given as a limit tells only on which side of the number the result lay.

For the compound `CCCCOc1ccc2cc(S(=O)(=O)N[C@H](CCC(=O)O)C(=O)O)ccc2c1`, the Kd in assay [1] worked out at 210 µM; in assay [2], 120 µM.

In turn, `O=C1Nc2ccc([N+](=O)[O-])cc2/C1=C1/SC(=S)N(NC(=O)c2cccnc2)C1=O` registered an inhibition constant Ki in [3] of 115 µM. In addition, the Kd turned out to be 106 µM in assay [4], 111 µM in assay [1], 98 µM in assay [5] and 79 µM in assay [10]. Moreover, the MIC against Streptococcus pneumoniae was > 128 µg/mL; against Streptococcus pyogenes it was > 128 µg/mL; against Staphylococcus aureus it was > 128 µg/mL; with Haemophilus influenzae [8], 128 µg/mL (≈ 299 µM); against Haemophilus influenzae [9] it was > 128 µg/mL; in the assay on Enterococcus faecalis, 128 µg/mL (≈ 299 µM). Also, the MIC against Escherichia coli [11] and with Escherichia coli [12] was > 128 µg/mL in each case. The outcome in assay [6] and in [7] was Active.

Consider `N#Cc1ccc(COc2ccc3cc(S(=O)(=O)N[C@H](CCC(=O)O)C(=O)O)ccc3c2)c(F)c1`, for which the Kd in assay [13] was 5.5 µM; in assay [14], 2.2 µM; in [15], 7 µM.
